Assay results: patent US4231936A, “Mitomycin C derivatives” (priority 1977, dated 1980)

Key:
[1] = tested on: Bacillus subtilis ATCC 10707; experiment: Minimum inhibitory concentration (Table I); format: cell-based
From the text: (§1) Comparative data similarly obtained by using mitomycin A, mitomycin C and 7-N-phenyl mitomycin C are also shown in this table

[2] = tested on: Klebsiella pneumoniae ATCC 10031; experiment: Minimum inhibitory concentration (Table I); format: cell-based
From the text: as §1

[3] = tested on: Shigella sonnei ATCC 9290; experiment: Minimum inhibitory concentration (Table I); format: cell-based
From the text: as §1

[4] = tested on: Staphylococcus aureus ATCC 6538P; experiment: Minimum inhibitory concentration (Table I); format: cell-based
From the text: as §1

P-388 cells [5] = experiment: Antitumor activity, P-388 leukemia intraperitoneally inoculated, compound i.p. (Example II); format: in vivo, CDF1 mice
Protocol: (§2) The following treatment was performed to make these compounds water-soluble for use in the experiments. A test compound was dissolved in ethanol (about 1000 times by weight) HCO-60, a commercially available surfactant was added in amounts of about 3 times by weight. The mixture was well stirred to dissolve the HCO-60. Ethanol was removed from the solution under reduced pressure by using a rotary evaporator. After this, a test solution was prepared by adding a suitable amount of a physiological saline solution with agitation.
Seven-day-old leukemia cells obtained from the ascites of DBA/2 mice inoculated intraperitoneally with 10^6 P-388 cells were used. A cell suspension containing 5×10^6 cells per ml was prepared by using a sterilized physiological saline solution. The test mice (CDF1 mice, 20-25 g) were inoculated with 0.2 ml of the cell suspension containing 1×10^6 cells intraperitoneally. After 24 hours, the mice were divided into groups (each group consisting of 5 mice) and the test solutions were administered intraperitoneally once only. […] In order to evaluate the effects of the test samples, the average survival days were calculated 30 and 60 days after tumor implantation and compared with those of the control group (untreated group). Antitumor activities of the test compounds are indicated by ILS % (increase in life span%) on the basis of the control group.

P-388 cells [6] = experiment: Antitumor effect, P-388 cells intravenously inoculated, compound i.v. (Example III); format: in vivo, Mice; conditions: 30 days
Protocol: as §2
Mice were inoculated intravenously with P-388 cells (10^6 /0.2 ml) in a similar manner to that described above in Example II. […] Untreated mice and mice administered with Tween 80 were used for control purpose.

Sarcoma 180 cells = experiment: Effect on Sarcoma-180, tumor weight ratio (Example IV); format: in vivo, dd-strain mice; parameters: key: D*: All mice in the group died
Protocol: as §2
(§3) Sarcoma 180 cells were inoculated intraperitoneally into dd-strain mice. After 7 days following tumor implantation, ascites tumor cells were obtained from the mice. The cells were washed and a tumor cell suspension containing 5×10^7 cells per ml was prepared with physiological saline solution. 0.1 ml of the thus-prepared suspension containing 5×10^6 cells was inoculated into the left inguinal region of each of the test mice (dd-strain; weight 19±1 g; divided into groups, each group consisting of 5 mice). After 24 hours following the inoculation, the test compounds were administered to the mice individually and intraperitoneally. After 4 days following the inoculation, the peripherical blood of the treated mice was obtained by the puncture of the orbital vein. The number of the leucocytes in the peripheral blood was measured by using Toa Microcell Counter CC-108 (a commercial product of Toa Medical Electronics Co., Ltd., Japan). In order to evaluate the antitumor effects, the tumor was removed 7 days after the inoculation and weighed. Its weight was compared with the average weight of the tumors of the control group (untreated) to give the weight ratios (T/C) shown in Table 5.

[7] = Number of leucocytes in peripheral blood of Sarcoma-180 bearing mice (Example IV); format: in vivo, dd-strain mice; parameters: key: D*: All mice in the group died
Protocol: as §2, §3

Solubility in water = format: physicochemical
[8] = Acute toxicity determination, intraperitoneal; parameters: species or system Mice (dd-strain); conditions: mouse, in vivo, ip; dd mice, single i.p., 14 days, Behrens-Karber
Protocol: as §2
Mice [dd-strain; weight 20±1 g; each group consisted of 5 mice] were used for this experiment. An individual test solution was administered to each mouse by intraperitoneal injection. The test solutions (each 0.5 ml) were prepared by stepwise dilution.

[9] = 5 mg/kg i.p. once, determined after 30 days
[10] = 5 mg/kg i.p. once, determined after 60 days
[11] = 10 mg/kg i.p. once, determined after 30 days
[12] = 10 mg/kg i.p. once, determined after 60 days
[13] = 15 mg/kg i.p. once, determined after 30 days
[14] = 15 mg/kg i.p. once, determined after 60 days
[15] = 20 mg/kg i.p. once, determined after 30 days
[16] = 20 mg/kg i.p. once, determined after 60 days
[17] = 5 mg/kg i.p., tumor weighed 7 days after inoculation
[18] = 10 mg/kg i.p., tumor weighed 7 days after inoculation
[19] = 20 mg/kg i.p., tumor weighed 7 days after inoculation
[20] = 5 mg/kg i.p., 4 days after inoculation
[21] = 10 mg/kg i.p., 4 days after inoculation
[22] = 20 mg/kg i.p., 4 days after inoculation

Q: Which results are given for CO[C@@]12[C@H](COC(N)=O)C3=C(C(=O)C(C)=C(Nc4ccccc4)C3=O)N1C[C@@H]1N[C@@H]12 [III, 7-N-phenyl mitomycin C, reference compound]?
A: minimum inhibitory concentration [1]: < 0.025; minimum inhibitory concentration [2]: 0.098; minimum inhibitory concentration [3]: 1.563; minimum inhibitory concentration [4]: < 0.025; Average survival days (P-388 cells [5]; [9]): 17.84 ± 1.2 days; ILS % (increase in life span) (P-388 cells [5]; [9]): 82%; Number of survivors (P-388 cells [5]; [9]): 0/5; Average survival days (P-388 cells [5]; [10]): 17.8 ± 1.2 days; ILS % (increase in life span) (P-388 cells [5]; [10]): 82%; Number of survivors (P-388 cells [5]; [10]): 0/5; Average survival days (P-388 cells [5]; [11]): 21.8 ± 4.3 days; ILS % (increase in life span) (P-388 cells [5]; [11]): 122%; Number of survivors (P-388 cells [5]; [11]): 1/5; Average survival days (P-388 cells [5]; [12]): 22.04 ± 4.6 days; ILS % (increase in life span) (P-388 cells [5]; [12]): 124%; Number of survivors (P-388 cells [5]; [12]): 0/5; Average survival days (P-388 cells [5]; [13]): 21.2 ± 2.8 days; ILS % (increase in life span) (P-388 cells [5]; [13]): 116%; Number of survivors (P-388 cells [5]; [13]): 0/5; Average survival days (P-388 cells [5]; [14]): 21.2 ± 2.8 days; ILS % (increase in life span) (P-388 cells [5]; [14]): 116%; Number of survivors (P-388 cells [5]; [14]): 0/5; Average survival days (P-388 cells [5]; [15]): 21.6 ± 4.4 days; ILS % (increase in life span) (P-388 cells [5]; [15]): 120%; Number of survivors (P-388 cells [5]; [15]): 1/5; Average survival days (P-388 cells [5]; [16]): 21.8 ± 4.8 days; ILS % (increase in life span) (P-388 cells [5]; [16]): 122%; Number of survivors (P-388 cells [5]; [16]): 0/5; Average survival days (P-388 cells [6]; 5 mg/kg i.v. once): 11.4 ± 1.4 days; ILS % (P-388 cells [6]; 5 mg/kg i.v. once): 33%; Average survival days (P-388 cells [6]; 10 mg/kg i.v. once): 13.6 ± 1.4 days; ILS % (P-388 cells [6]; 10 mg/kg i.v. once): 54%; Average survival days (P-388 cells [6]; 15 mg/kg i.v. once): 15.8 ± 1.5 days; ILS % (P-388 cells [6]; 15 mg/kg i.v. once): 84%; Average survival days (P-388 cells [6]; 20 mg/kg i.v. once): 18.0 ± 1.7 days; ILS % (P-388 cells [6]; 20 mg/kg i.v. once): 109%; Average survival days (P-388 cells [6]; 30 mg/kg i.v. once): 10.0 ± 2.3 days; ILS % (P-388 cells [6]; 30 mg/kg i.v. once): 16%; T/C (tumor weight ratio) (Sarcoma 180 cells; [17]): 0.84; T/C (tumor weight ratio) (Sarcoma 180 cells; [18]): 0.59; T/C (tumor weight ratio) (Sarcoma 180 cells; [19]): 0.21; T/C (tumor weight ratio) (Sarcoma 180 cells; 40 mg/kg i.p., death symbol in place of T/C): D*; Average number of leucocytes [7, 20]: 81.4 ± 21.2 × 10^2 /mm^3; Average number of leucocytes [7, 21]: 60.8 ± 18.7 × 10^2 /mm^3; Average number of leucocytes [7, 22]: 31.8 ± 11.9 × 10^2 /mm^3; Average number of leucocytes ([7]; 40 mg/kg i.p., death symbol in place of count): D*; solubility in water (Solubility in water): low solubility in water

Q: What does the source list for CO[C@@]12[C@H](COC(N)=O)C3=C(C(=O)C(C)=C(Nc4ccc(N)cc4)C3=O)N1C[C@@H]1N[C@@H]12 [V, 7-N-(p-aminophenyl)-mitomycin C]?
A: minimum inhibitory concentration [1]: < 0.025; minimum inhibitory concentration [2]: 0.049; minimum inhibitory concentration [3]: 3.125; minimum inhibitory concentration [4]: < 0.025; LD50 at 336 h [8]: 18 mg/kg; Average survival days (P-388 cells [5]; [9]): 20.0 ± 3.0 days; ILS % (increase in life span) (P-388 cells [5]; [9]): 104%; Number of survivors (P-388 cells [5]; [9]): 0/5; Average survival days (P-388 cells [5]; [10]): 20.0 ± 3.0 days; ILS % (increase in life span) (P-388 cells [5]; [10]): 104%; Number of survivors (P-388 cells [5]; [10]): 0/5; Average survival days (P-388 cells [5]; [11]): 24.6 ± 2.9 days; ILS % (increase in life span) (P-388 cells [5]; [11]): 151%; Number of survivors (P-388 cells [5]; [11]): 1/5; Average survival days (P-388 cells [5]; [12]): 26.4 ± 6.4 days; ILS % (increase in life span) (P-388 cells [5]; [12]): 169%; Number of survivors (P-388 cells [5]; [12]): 0/5; Average survival days (P-388 cells [5]; [13]): 21.6 ± 6.4 days; ILS % (increase in life span) (P-388 cells [5]; [13]): 120%; Number of survivors (P-388 cells [5]; [13]): 1/5; Average survival days (P-388 cells [5]; [14]): 21.8 ± 6.7 days; ILS % (increase in life span) (P-388 cells [5]; [14]): 122%; Number of survivors (P-388 cells [5]; [14]): 0/5; Average survival days (P-388 cells [5]; [15]): 18.4 ± 6.1 days; ILS % (increase in life span) (P-388 cells [5]; [15]): 88%; Number of survivors (P-388 cells [5]; [15]): 1/5; Average survival days (P-388 cells [5]; [16]): 24.4 ± 17.9 days; ILS % (increase in life span) (P-388 cells [5]; [16]): 149%; Number of survivors (P-388 cells [5]; [16]): 1/5; Average survival days (P-388 cells [6]; 5 mg/kg i.v. once): 14.0 ± 0 days; ILS % (P-388 cells [6]; 5 mg/kg i.v. once): 63%; Average survival days (P-388 cells [6]; 10 mg/kg i.v. once): 17.8 ± 1.9 days; ILS % (P-388 cells [6]; 10 mg/kg i.v. once): 107%; Average survival days (P-388 cells [6]; 15 mg/kg i.v. once): 23.0 ± 1.7 days; ILS % (P-388 cells [6]; 15 mg/kg i.v. once): 167%; Average survival days (P-388 cells [6]; 20 mg/kg i.v. once): 15.8 ± 5.4 days; ILS % (P-388 cells [6]; 20 mg/kg i.v. once): 84%; Average survival days (P-388 cells [6]; 30 mg/kg i.v. once): 8.4 ± 1.0 days; ILS % (P-388 cells [6]; 30 mg/kg i.v. once): -2%; T/C (tumor weight ratio) (Sarcoma 180 cells; [17]): 0.71; T/C (tumor weight ratio) (Sarcoma 180 cells; [18]): 0.37; T/C (tumor weight ratio) (Sarcoma 180 cells; [19]): 0.24; T/C (tumor weight ratio) (Sarcoma 180 cells; 40 mg/kg i.p., tumor weighed 7 days after inoculation): 0.09; Average number of leucocytes [7, 20]: 58.2 ± 17.1 × 10^2 /mm^3; Average number of leucocytes [7, 21]: 34.2 ± 11.2 × 10^2 /mm^3; Average number of leucocytes [7, 22]: 24.0 ± 10.2 × 10^2 /mm^3; Average number of leucocytes ([7]; 40 mg/kg i.p., 4 days after inoculation): 13.6 ± 4.6 × 10^2 /mm^3; solubility in water (Solubility in water): low solubility in water
